Source: the supplement of paper PMC10307832

How the values were obtained:
Test in all cases: relative viability (nuclei count vs DMSO), 5 days (fraction); higher = more cells survive
NCI-H1395 = tested on: NCI-H1395
How it was run: (§1)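 Nuclei were stained with Hoechst during a one-step fixation (final 0.05% Triton X-100, 1% formaldehyde, 1 ug/ml Hoechst) carried out 5 days after dosing, then counted on 4× images. The cells, lung cancer lines in 1536-well plates, had been dosed by pin tool the day after seeding with one drug alone or a fixed anchor-drug dose plus five library-drug doses (not always all listed) in √10 steps. Relative viability is the nuclei count in treated wells divided by that in vehicle wells, and each value is the median of duplicate plates.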

ChaGo-K-1 = tested on: ChaGo-K-1
How it was run: as §1

NCI-H1993 = tested on: NCI-H1993
How it was run: as §1

NCI-H2405 = tested on: NCI-H2405
How it was run: as §1

EMC-BAC-2 = tested on: EMC-BAC-2
How it was run: as §1

NCI-H1793 = tested on: NCI-H1793
How it was run: as §1

NCI-H23 = tested on: NCI-H23
How it was run: as §1

HCC-15 = tested on: HCC-15
How it was run: as §1

LC-2-ad = tested on: LC-2-ad
How it was run: as §1

NCI-H358 = tested on: NCI-H358
How it was run: as §1

HCC-366 = tested on: HCC-366
How it was run: as §1

NCI-H1944 = tested on: NCI-H1944
How it was run: as §1

HOP-62 = tested on: HOP-62
How it was run: as §1

NCI-H2228 = tested on: NCI-H2228
How it was run: as §1

HCC-78 = tested on: HCC-78
How it was run: as §1

HARA = tested on: HARA
How it was run: as §1

COR-L23 = tested on: COR-L23
How it was run: as §1

NCI-H2023 = tested on: NCI-H2023
How it was run: as §1

NCI-H2126 = tested on: NCI-H2126
How it was run: as §1

ABC-1 = tested on: ABC-1
How it was run: as §1

SK-LU-1 = tested on: SK-LU-1
How it was run: as §1

NCI-H838 = tested on: NCI-H838
How it was run: as §1

Work on `Nc1ccn([C@@H]2O[C@H](CO)[C@@H](O)[C@@H]2O)c(=O)n1` [Cytarabine] + COc1cc2c(Oc3ccc(NC(=O)C4(C(=O)Nc5ccc(F)cc5)CC4)cc3F)ccnc2cc1OCCCN1CCOCC1 [Foretinib] (partner 0.25 µM) yielded a relative viability (NCI-H1395; first compound 0.005 µM) of 0.917, a relative viability (NCI-H1395; first compound 0.01581 µM) of 0.757 and a relative viability (NCI-H1395; first compound 0.05 µM) of 0.548. For the same compound, the relative viability (NCI-H1395; first compound 0.1581 µM) was 0.492, the relative viability (NCI-H1395; first compound 0.5 µM) was 0.413 and the relative viability (ChaGo-K-1; first compound 0.005 µM) was 0.734. The relative viability (ChaGo-K-1; first compound 0.01581 µM) was 0.59, the relative viability (ChaGo-K-1; first compound 0.05 µM) was 0.391 and the relative viability (ChaGo-K-1; first compound 0.1581 µM) was 0.259. For the same compound, the relative viability (ChaGo-K-1; first compound 0.5 µM) was 0.251, the relative viability (NCI-H1993; first compound 0.005 µM) was 0.843 and the relative viability (NCI-H1993; first compound 0.01581 µM) was 0.889. It also gave a relative viability (NCI-H1993; first compound 0.05 µM) of 0.726, a relative viability (NCI-H1993; first compound 0.1581 µM) of 0.485 and a relative viability (NCI-H1993; first compound 0.5 µM) of 0.468. For the same compound, the relative viability (NCI-H2405; first compound 0.005 µM) was 1.02, the relative viability (NCI-H2405; first compound 0.01581 µM) was 0.908 and the relative viability (NCI-H2405; first compound 0.05 µM) was 0.747. It also gave a relative viability (NCI-H2405; first compound 0.1581 µM) of 0.618, a relative viability (NCI-H2405; first compound 0.5 µM) of 0.493 and a relative viability (EMC-BAC-2; first compound 0.005 µM) of 0.954. For the same compound, the relative viability (EMC-BAC-2; first compound 0.01581 µM) was 0.831, the relative viability (EMC-BAC-2; first compound 0.05 µM) was 0.305 and the relative viability (EMC-BAC-2; first compound 0.1581 µM) was 0.282. It also gave a relative viability (EMC-BAC-2; first compound 0.5 µM) of 0.226, a relative viability (NCI-H1793; first compound 0.005 µM) of 0.812 and a relative viability (NCI-H1793; first compound 0.01581 µM) of 0.684. It also gave a relative viability (NCI-H1793; first compound 0.05 µM) of 0.683, a relative viability (NCI-H1793; first compound 0.1581 µM) of 0.545 and a relative viability (NCI-H1793; first compound 0.5 µM) of 0.494. For the same compound, the relative viability (NCI-H23; first compound 0.005 µM) was 0.784, the relative viability (NCI-H23; first compound 0.01581 µM) was 0.414 and the relative viability (NCI-H23; first compound 0.05 µM) was 0.43. For the same compound, the relative viability (NCI-H23; first compound 0.1581 µM) was 0.285, the relative viability (NCI-H23; first compound 0.5 µM) was 0.256 and the relative viability (HCC-15; first compound 0.005 µM) was 0.905. The relative viability (HCC-15; first compound 0.01581 µM) was 1.05, the relative viability (HCC-15; first compound 0.05 µM) was 0.996 and the relative viability (HCC-15; first compound 0.1581 µM) was 0.77. The relative viability (HCC-15; first compound 0.5 µM) was 0.706, the relative viability (LC-2-ad; first compound 0.005 µM) was 0.899 and the relative viability (LC-2-ad; first compound 0.01581 µM) was 0.823. The relative viability (LC-2-ad; first compound 0.05 µM) was 0.839, the relative viability (LC-2-ad; first compound 0.1581 µM) was 0.62 and the relative viability (LC-2-ad; first compound 0.5 µM) was 0.41. For the same compound, the relative viability (NCI-H358; first compound 0.005 µM) was 0.612, the relative viability (NCI-H358; first compound 0.01581 µM) was 0.603 and the relative viability (NCI-H358; first compound 0.05 µM) was 0.3. For the same compound, the relative viability (NCI-H358; first compound 0.1581 µM) was 0.131, the relative viability (NCI-H358; first compound 0.5 µM) was 0.126 and the relative viability (HCC-366; first compound 0.005 µM) was 0.991. It also gave a relative viability (HCC-366; first compound 0.01581 µM) of 0.831, a relative viability (HCC-366; first compound 0.05 µM) of 0.584 and a relative viability (HCC-366; first compound 0.1581 µM) of 0.119. The relative viability (HCC-366; first compound 0.5 µM) was 0.105, the relative viability (NCI-H1944; first compound 0.005 µM) was 0.633 and the relative viability (NCI-H1944; first compound 0.01581 µM) was 0.438. It also gave a relative viability (NCI-H1944; first compound 0.05 µM) of 0.331, a relative viability (NCI-H1944; first compound 0.1581 µM) of 0.223 and a relative viability (NCI-H1944; first compound 0.5 µM) of 0.168. For the same compound, the relative viability (HOP-62; first compound 0.005 µM) was 0.904, the relative viability (HOP-62; first compound 0.01581 µM) was 0.875 and the relative viability (HOP-62; first compound 0.05 µM) was 0.45. For the same compound, the relative viability (HOP-62; first compound 0.1581 µM) was 0.137, the relative viability (HOP-62; first compound 0.5 µM) was 0.142 and the relative viability (NCI-H2228; first compound 0.005 µM) was 0.479. For the same compound, the relative viability (NCI-H2228; first compound 0.01581 µM) was 0.563, the relative viability (NCI-H2228; first compound 0.05 µM) was 0.285 and the relative viability (NCI-H2228; first compound 0.1581 µM) was 0.173. The relative viability (NCI-H2228; first compound 0.5 µM) was 0.166, the relative viability (HCC-78; first compound 0.005 µM) was 0.601 and the relative viability (HCC-78; first compound 0.01581 µM) was 0.482. The relative viability (HCC-78; first compound 0.05 µM) was 0.524, the relative viability (HCC-78; first compound 0.1581 µM) was 0.378 and the relative viability (HCC-78; first compound 0.5 µM) was 0.372. The relative viability (HARA; first compound 0.005 µM) was 0.753, the relative viability (HARA; first compound 0.01581 µM) was 0.496 and the relative viability (HARA; first compound 0.05 µM) was 0.363. It also gave a relative viability (HARA; first compound 0.1581 µM) of 0.107, a relative viability (HARA; first compound 0.5 µM) of 0.123 and a relative viability (COR-L23; first compound 0.005 µM) of 0.958. It also gave a relative viability (COR-L23; first compound 0.01581 µM) of 0.966, a relative viability (COR-L23; first compound 0.05 µM) of 0.612 and a relative viability (COR-L23; first compound 0.1581 µM) of 0.206. It also gave a relative viability (COR-L23; first compound 0.5 µM) of 0.137, a relative viability (NCI-H2023; first compound 0.005 µM) of 0.535 and a relative viability (NCI-H2023; first compound 0.01581 µM) of 0.502. It also gave a relative viability (NCI-H2023; first compound 0.05 µM) of 0.158, a relative viability (NCI-H2023; first compound 0.1581 µM) of 0.101 and a relative viability (NCI-H2023; first compound 0.5 µM) of 0.0682. For the same compound, the relative viability (NCI-H2126; first compound 0.005 µM) was 1.01, the relative viability (NCI-H2126; first compound 0.01581 µM) was 1.03 and the relative viability (NCI-H2126; first compound 0.05 µM) was 1.1. It also gave a relative viability (NCI-H2126; first compound 0.1581 µM) of 0.922, a relative viability (NCI-H2126; first compound 0.5 µM) of 0.694 and a relative viability (ABC-1; first compound 0.005 µM) of 0.997. For the same compound, the relative viability (ABC-1; first compound 0.01581 µM) was 1.14, the relative viability (ABC-1; first compound 0.05 µM) was 1.06 and the relative viability (ABC-1; first compound 0.1581 µM) was 1.01. The relative viability (ABC-1; first compound 0.5 µM) was 0.63, the relative viability (SK-LU-1; first compound 0.005 µM) was 0.735 and the relative viability (SK-LU-1; first compound 0.01581 µM) was 0.759. The relative viability (SK-LU-1; first compound 0.05 µM) was 0.538, the relative viability (SK-LU-1; first compound 0.1581 µM) was 0.302 and the relative viability (SK-LU-1; first compound 0.5 µM) was 0.23. The relative viability (NCI-H838; first compound 0.005 µM) was 1.13, the relative viability (NCI-H838; first compound 0.01581 µM) was 1.08 and the relative viability (NCI-H838; first compound 0.05 µM) was 0.939. For the same compound, the relative viability (NCI-H838; first compound 0.1581 µM) was 0.486 and the relative viability (NCI-H838; first compound 0.5 µM) was 0.301.
